From patent publication US12636368B2, “Ionizable lipids for nucleic acid delivery” (Global Life Sciences Solutions Canada ULC, priority 2019, dated 2026)
Like-named read-outs stand apart in the source and are kept apart here.

Experiments:
[1] = TNS assay, surface pKa of lipid nanoparticles; type: physicochemical
Procedure: In embodiments of the invention, the experimental pKa of formulated lipid nanoparticles comprising lipids in Table 1 is calculated using the 2-(p-toluidinyl)naphthalene-6-sulfonic acid (TNS) assay. The procedure for the TNS assay is described in Example 25.
The pKa of each cationic lipid was determined in lipid nanoparticles using an assay based on fluorescence of 6-(p-Toluidino)-2-naphthalenesulfonic acid sodium salt (TNS, Sigma Aldrich), which is a fluorescent probe for the conformational state of proteins5. Empty lipid nanoparticles comprising ionizable lipid in LM02 composition in distilled water at a concentration of 3.125 mM total lipid are formulated using NanoAssemblr® Spark™, and were then was characterized for LNP quality on the Zetasizer™ using a 30× dilution with 1×PBS in the low volume cuvette. Lipid nanoparticles were further diluted 4× using distilled water to 0.781 mM total lipid. TNS was prepared as a 25 μM stock solution in distilled water. Then 6.4 μL of diluted LNP samples of 0.781 mM total lipid were mixed with 10 μL of diluted TNS to a final volume of 250 μL with buffer containing 10 mM HEPES, 10 mM MES, 10 mM NH4OAc and 130 mM NaCl where the pH ranged from 3 to 9 in 0.5 pH increments.
Samples were mixed thoroughly, and the fluorescence intensity was measured at room temperature in a BioTek™ Synergy™ H1 Hybrid Multi-Mode Monochromator™ Fluorescence Microplate Reader using excitation and emission wavelengths of 321 nm and 445 nm respectively. A sigmoidal best fit analysis was applied to the fluorescence data using GraphPad Prism™ software, and the pKa was measured as the pH at half-maximal fluorescence intensity.

[2] = tested on: isolated primary human T cells; test: GFP mRNA-LNP transfection of primary human T cells, flow cytometry; type: cell-based; conditions: for % eGFP +: Table 4, transfection efficiency, eGFP mRNA LNPs, CT10, N/P 8
Procedure: Reagents were from Stemcell Technologies unless otherwise stated. Tcells were isolated from a single donor. At 48 h following lipid particle mRNA exposure, the treated T cells were harvested by transferring the cell suspensions to pre-labeled 1.5 mL tubes and centrifuged 300×g at 4 degrees C. for 10 minutes. Supernatant was removed and the pellet resuspended in PBS. An amount of 0.5 ul of BD Horizon™ Fixable Viability Stain 575V™ (BD Biosciences), was added, and the mixture incubated in the dark for 10 minutes at RT. This stain binds to amines.
The cells were centrifuged again as before, then washed twice with 1 mL of stain buffer (BSA, BD Pharminigen), and the washed pellet was diluted in 100 μl BSA. The following antibodies were added to each tube of treated cells in 2 μl volumes: CD25, CD8, CD4, (PerCP-Cy™ 5.5 Mouse Anti Human CD25, BV786 Mouse Anti-Human CD8 Clone RPA-T8, APC-Cy™7 Mouse Anti-Human CD4 Clone SK3 (all from BD Pharmingen) with the exception of the controls: in the eGFP only sample and viability control, no antibody was added. In the single stain compensation tubes, only one antibody per tube was added.
The tubes were incubated at 4 degrees C. for 30 min, whereupon […] of stain buffer was added, and the cells were centrifuged again. Cells were washed once with 1 mL of stain buffer and spun down again as in step one. Cell pellets were resuspended in 1 mL of stain buffer and added to pre-labeled flow tubes with cell strainer caps (Corning Falcon). […]
GFP MFI was measured by flow cytometry 48 hours after LNP addition. T cells were isolated from whole blood using a negative isolation procedure (EasySep™ Human T Cell Isolation Kit, Stemcell Technologies). T cells were dosed with mRNA-LNPs 3 days after activation with 500 ng of encapsulated mRNA per 125,000 cells. The LNP were CT10 compositions with an N/P of 8. Transfection efficiency (upper graph) and MFI (lower graph) were measured by flow cytometry 48 h after LNP addition.

[3] = tested on: human T cells; test: eGFP ELISA after eGFP mRNA LNP treatment of human T cells; type: cell-based; conditions: Table 4; for Fold Change Relative to MC3: eGFP (pg) relative to MC3; for eGFP: quantity of expressed eGFP, eGFP mRNA LNPs, CT10
Procedure: Reagents were acquired from Abcam, Cambridge, UK unless otherwise stated. […] The assay was performed as directed by the eGFP SimpleStep ELISA® Kit protocol. Briefly; frozen human T cells, previously isolated from fresh human whole blood using a negative selection protocol, were thawed and activated using a triple activator. […] After 48 hours of treatment with mRNA LNPs the T cells were harvested and lysed for total eGFP content.
In order to expose the isolated and activated T cells (Day 0) to the formulated mRNA, 2 ug of CleanCap™ eGFP (Trilink Biotechnologies, San Diego, CA) mRNA-containing LNP was added to 500,000 T cells in 1 mL of complete T cell media, with 1 ug/mL of Recombinant Human ApoE4 (“ApoE”) (Peprotech Inc., Montreal, Canada).
Frozen human T cells, previously isolated from fresh human whole blood using a negative selection protocol, were thawed and activated using a triple activator. At 10 days post-activation, T cells were dosed with CT10 mRNA LNPs LNP comprising DLin-MC3-DMA, PNI 76, PNI 119, PNI 120, PNI 121, and PNI 122 encoding eGFP at 2 pg mRNA per 500,000 cells and N/P 10. Protein expression was measured after 48 hours by eGFP ELISA.

[4] = tested on: primary human T cells; test: EPO ELISA after EPO mRNA LNP treatment of primary human T cells; type: cell-based; conditions: Table 5
Procedure: Reagents were acquired from Quantikine, Minneapolis, MN. The assay was performed as directed on the Quantikine® IVD® ELISA Human Erythropoietin Immunoassay protocol. REF DEP00 Package Insert. Briefly; primary human T cells were isolated from fresh whole blood using a negative selection protocol and activated using a triple activator. Seven days post-activation, T cells were dosed with mRNA LNPs encoding EPO at 2 pg mRNA per 500,000 cells and N/P 10. Quantikine® Human Serum Controls were used. After 48 hours of treatment with mRNA LNPs the T cells were harvested and lysed for cytosolic EPO and media supernatant was sampled for secreted EPO. Table 5 includes the data of FIG. 6 as well as the fold increase of EPO for PNI 76 and 121 versus MC3.

[5] = LNP size and PDI by dynamic light scattering; type: physicochemical; conditions: Table 7; EPO mRNA LNPs, LM02, N/P 6
Procedure: After the lipid particles were made as described supra, particle size (hydrodynamic diameter of the particles) was determined by Dynamic Light Scattering (DLS) using a ZetaSizer™ Nano ZS™ (Malvern Instruments, UK). He/Ne laser tuned to 633 nm wavelength was used as the light source. Data were measured from the scattered intensity data conducted in backscattering detection mode (measurement angle=173). Measurements were an average of 10 runs of two cycles each per sample. Z-Average size was reported as the particle size, and is defined as the harmonic intensity averaged particle diameter.
(§1) Physical characteristics of lipid nanoparticle (LNP) compositions comprising compounds according to Formula (I) and that were manufactured on the NanoAssemblr® Spark and Benchtop, are shown in Tables 6 and 7 below. Size, size variation of the LNP (PDI), encapsulation efficiency, and pKa are shown. The physical characteristics of these LNP are important from a standpoint of stability, biodistribution, and cell membrane crossing. There was good encapsulation in all the formulations, with polydispersity (PDI) under 0.3. Size and PDI were measured using dynamic light scattering techniques, and nucleic acid encapsulation efficiency was calculated from a modified Quant-iT RiboGreen RNA assay.

[6] = Nucleic acid encapsulation efficiency by RiboGreen assay; type: physicochemical; conditions: Table 7; EPO mRNA LNPs, LM02, N/P 6
Procedure: Messenger RNA or plasmid NAT was diluted using sodium acetate buffer to the required concentration. Lipid nucleic acid particle samples were then prepared by running both fluids using the NanoAssemblr® Spark instrument. […] The lipid nucleic acid particles made in the instrument were immediately diluted down with 48 μL Ca and Mg free 1×PBS at pH 7.4 in the aqueous output well. These nucleic acid lipid particles were immediately collected into microcentrifuge tubes containing 96 μL of Ca and Mg free 1×PBS at pH 7.4. Encapsulation efficiency was measured by a modified Ribogreen™ assay (Quanti-iT RiboGreen™ RNA assay kit, Fisher). Observed particle attributes were generally sized from 60-200 nm for mRNA, depending on lipid composition and method of production.
as §1

[7] = Table 4, determined by TNS assay, read-out: pKa Ex.

pKa [1, 7] | pKa ([1]; Table 1, formulated lipid nanoparticles, TNS assay, read-out: Exp. pKa) | pKa ([1]; Table 5, read-out: pKa Exp.) | pKa ([1]; Table 8, read-out: Exp.pKa) | Diameter (Z. ave, nm) [5] [nm] | Polydispersity Index (PDI) [5] | Encapsulation Efficiency (%) [6] [%] | SMILES | % eGFP + [2] [%] | Fold Change Relative to MC3 [3] | eGFP [3] [pg] | transfection efficiency compared with MC3 ([2]; FIG. 1, eGFP mRNA LNP, CT10, N/P 10, 48 hours after treatment) | EPO Fold Change Relative to MC3 [4] | EPO concentration (mIU/mL) ([4]; EPO mRNA LNPs, 2 pg mRNA per 500,000 cells, N/P 10, 48 hours)
5.99 |  |  |  |  |  |  | CCCCC/C=C\C/C=C\CCCCCCCCC(CCCCCCCC/C=C\C/C=C\CCCCC)OC(=O)CCCN(C)C [MC 3, DLin-MC3-DMA, reference compound] | 58.95 | 1 | 1370.0 |  |  | 
6.42 | 6.42 | 6.42 | 6.4 | 83.1 | 0.16 | 88.9 | CCCCCCCCCCCCCC(=O)O[C@H]1COC([C@@H](COC(=O)CCCN(C)C)OC(=O)CCCCCCCCCCCCC)[C@@H]1OC(=O)CCCCCCCCCCCCC (some centres unmarked) [PNI 76] | 62.35 | 1.095 | 1502.0 | equal transfection efficiency as MC3 | 0.93 | 507.3
7.48 |  |  |  |  |  |  | CCCCCCCCCCCCCC(=O)O[C@@H]1[C@@H](OC(=O)CCCCCCCCCCCCC)CO[C@@H]1COC(=O)CCCN(C)C [PNI] |  | 0.589 | 807.0 |  |  | 
